Assay [1] deals with T1, Histone deacetylase 8 (Homo sapiens, UniProt Q9BY41).
T1 sequence (Q9BY41 whole entry): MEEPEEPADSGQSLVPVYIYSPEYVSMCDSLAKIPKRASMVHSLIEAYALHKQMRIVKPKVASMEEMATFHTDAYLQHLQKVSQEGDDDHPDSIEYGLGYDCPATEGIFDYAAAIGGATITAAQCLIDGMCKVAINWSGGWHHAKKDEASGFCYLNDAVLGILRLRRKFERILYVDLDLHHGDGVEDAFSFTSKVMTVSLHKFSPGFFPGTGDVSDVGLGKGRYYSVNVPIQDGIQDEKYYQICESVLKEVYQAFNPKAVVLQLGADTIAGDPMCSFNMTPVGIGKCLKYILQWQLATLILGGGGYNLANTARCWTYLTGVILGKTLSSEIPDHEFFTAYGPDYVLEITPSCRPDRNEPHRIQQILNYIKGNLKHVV
Description: Inhibition of HDAC8 expressed in Escherichia coli assessed as Boc-Lys (acetyl)-AMC substrate hydrolysis by fluorimetric assay

Assay [2] relates to HL-60. The experiment in a line: Antiproliferative activity against human HL60 cells after 48 hrs by MTT assay. It is filed as functional, cell-based. The following applies: HL-60, 48 h.
The subject of assay [3] is HCT-116. Briefly: Antiproliferative activity against human HCT116 cells after 48 hrs by MTT assay. It is filed as functional, cell-based. The following applies: HCT-116, 48 h.
For assay [4], the system named is SK-OV-3. The experiment in a line: Antiproliferative activity against human SKOV3 cells after 48 hrs by MTT assay. It is filed as functional, cell-based. The following applies: SK-OV-3, 48 h.

A value given as a limit tells only on which side of the number the result lay.

Compound `O=C(COc1ccc2c(c1)CN[C@H](C(=O)Nc1ccc(-c3ccccc3)cc1)C2)NO` came in with an IC50 in assay [1] of 2.21 µM. Consider `O=C(COc1ccc2c(c1)CN[C@H](C(=O)Nc1cccc3ccccc13)C2)NO`, for which the IC50 in assay [2] was found to be 980 µM; in assay [3] it was 170 µM; in assay [4], 750 µM; in assay [1], 1.06 µM. Regarding `O=C(COc1ccc2c(c1)CN1C(=O)N(c3ccccc3)C(=O)[C@@H]1C2)NO`, the IC50 in assay [1] is > 50 µM. The same measure, in the same setting: then `Cc1cccc(NC(=O)[C@@H]2Cc3ccc(OCC(=O)NO)cc3CN2C(=O)OC(C)(C)C)c1`, with 1.77 µM; and `CCCCCNC(=O)[C@@H]1Cc2ccc(OCC(=O)NO)cc2CN1C(=O)OC(C)(C)C`, with 3.02 µM.

Consider `Cc1cccc(NC(=O)[C@@H]2Cc3ccc(OCC(=O)NO)cc3CN2)c1`, for which, in assay [1], the IC50 stood at 3.62 µM.

Take `Cc1ccc(NC(=O)[C@@H]2Cc3ccc(OCC(=O)NO)cc3CN2)cc1`: the IC50 in assay [1] turned out to be 3.82 µM. The compound `CC(C)(C)OC(=O)N1Cc2cc(OCC(=O)NO)ccc2C[C@H]1C(=O)Nc1ccccc1` returned a half-maximal inhibitory concentration (IC50) in assay [1] of 1.29 µM. Same read-out and setting: then `Cc1ccccc1NC(=O)[C@@H]1Cc2ccc(OCC(=O)NO)cc2CN1C(=O)OC(C)(C)C`, with 4 µM; and `CC(C)(C)OC(=O)N1Cc2cc(OCC(=O)NO)ccc2C[C@H]1C(=O)Nc1ccc(F)cc1`, with 2.56 µM; and `CC(C)(C)OC(=O)N1Cc2cc(OCC(=O)NO)ccc2C[C@H]1C(=O)Nc1cccc2ccccc12`, with 4.25 µM. `O=C(COc1ccc2c(c1)CN[C@H](C(=O)Nc1ccc(F)cc1)C2)NO` returned a concentration for half-maximal inhibition (IC50) in assay [1] of 3.23 µM.

For the compound `CC(C)(C)OC(=O)N1Cc2cc(OCC(=O)NO)ccc2C[C@H]1C(=O)Nc1ccc(F)c(Cl)c1`, it took 1.55 µM to reach half-maximal inhibition in assay [1] (IC50). As to `O=C(COc1ccc2c(c1)CN[C@H](C(=O)Nc1ccc(F)c(Cl)c1)C2)NO`, in assay [1], the IC50 worked out at 3.34 µM.

`CC(C)(C)NC(=O)[C@@H]1Cc2ccc(OCC(=O)NO)cc2CN1C(=O)OC(C)(C)C`: the midpoint of inhibition in assay [1], the IC50, lay at 4.58 µM. For the compound `Cc1ccc(NC(=O)[C@@H]2Cc3ccc(OCC(=O)NO)cc3CN2C(=O)OC(C)(C)C)c(C)c1`, in assay [1], the concentration for half-maximal inhibition (IC50) was 3.78 µM. `Cc1ccccc1NC(=O)[C@@H]1Cc2ccc(OCC(=O)NO)cc2CN1` came in with an IC50 in assay [1] of 4.13 µM. The same measure, in the same setting: with `O=C(COc1ccc2c(c1)CN[C@H](C(=O)Nc1ccccc1)C2)NO` the figure was 8.21 µM.

`CC(C)(C)NC(=O)[C@@H]1Cc2ccc(OCC(=O)NO)cc2CN1` showed a concentration for half-maximal inhibition (IC50) in assay [1] of 12.2 µM. Same read-out and setting: with `O=C(COc1ccc2c(c1)CN[C@H](C(=O)NCCc1ccccc1)C2)NO` the figure was 4.07 µM. `CC(C)(C)OC(=O)N1Cc2cc(OCC(=O)NO)ccc2C[C@H]1C(=O)NCCc1ccccc1` registered an IC50 in assay [1] of 2.67 µM. Compound `COc1ccc(NC(=O)[C@@H]2Cc3ccc(OCC(=O)NO)cc3CN2)cc1` registered an IC50 in assay [1] of 5.57 µM. Turning to `CC(C)(C)OC(=O)N1Cc2cc(OCC(=O)NO)ccc2C[C@H]1C(=O)Nc1ccc(-c2ccccc2)cc1`, the IC50 in assay [1] worked out at 1.98 µM.

The compound `CCCCCNC(=O)[C@@H]1Cc2ccc(OCC(=O)NO)cc2CN1` yielded a concentration for half-maximal inhibition (IC50) in assay [1] of 3.54 µM. Regarding `CC(C)(C)OC(=O)N1Cc2cc(OCC(=O)NO)ccc2C[C@H]1C(=O)NCc1ccccc1`, in assay [1], half-maximal inhibition (IC50) was put at 3.41 µM.

For the compound `O=C(COc1ccc2c(c1)CN[C@H](C(=O)Nc1cccc(Cl)c1)C2)NO`, the IC50 in assay [1] is 3.2 µM. Take `COc1ccc(NC(=O)[C@@H]2Cc3ccc(OCC(=O)NO)cc3CN2C(=O)OC(C)(C)C)cc1`: the concentration for half-maximal inhibition (IC50) in assay [2] is > 2120 µM; in assay [3], 48 µM; in assay [4], 420 µM; in assay [1] it was 1 µM. With `CCCCCCNC(=O)[C@@H]1Cc2ccc(OCC(=O)NO)cc2CN1C(=O)OC(C)(C)C`, the 50% inhibitory concentration (IC50) in assay [1] amounted to 4.42 µM.

The compound `O=C(COc1ccc2c(c1)CN[C@H](C(=O)NCc1ccccc1)C2)NO` gave an IC50 in assay [1] of 5.1 µM. On to `O=C(COc1ccc2c(c1)CN1C(=O)N(c3ccc(-c4ccccc4)cc3)C(=O)[C@@H]1C2)NO`, for which, in assay [1], the concentration for half-maximal inhibition (IC50) was > 50 µM. On to `O=C(COc1ccc2c(c1)CN(C(=O)OCc1ccccc1)[C@H](C(=O)NCCc1ccccc1)C2)NO`, for which the IC50 in assay [2] was > 2000 µM; in assay [3] it was 370 µM; in assay [4], > 2000 µM; in assay [1] it was 0.58 µM. On to `Cc1ccc(NC(=O)[C@@H]2Cc3ccc(OCC(=O)NO)cc3CN2)c(C)c1`, for which the IC50 in assay [1] was 3.39 µM.

As for `CC(C)(C)OC(=O)N1Cc2cc(OCC(=O)NO)ccc2C[C@H]1C(=O)Nc1cccc(Cl)c1`, the IC50 in assay [2] was determined as 960 µM; in assay [3], 490 µM; in assay [4], 680 µM; in assay [1] it was 1.17 µM. Take `CCCCCCNC(=O)[C@@H]1Cc2ccc(OCC(=O)NO)cc2CN1`: half-maximal inhibition in assay [1] (IC50) required 5.77 µM. As to `Cc1ccc(NC(=O)[C@@H]2Cc3ccc(OCC(=O)NO)cc3CN2C(=O)OC(C)(C)C)cc1`, half-maximal inhibition in assay [1] (IC50) required 1.65 µM.
